Data published in publication PMC10778198, “First-in-Human Dose-Escalation Study of the Novel Oral Depsipeptide Class I-Targeting HDAC Inhibitor Bocodepsin (OKI-179) in Patients with Advanced Solid Tumors” (Cancers, 2023).

Test system: patients with advanced solid tumors
Assay: phase I dose escalation: safety, DLT, MTD, RP2D (CTCAE v. 5)
Assay type: in vivo
Details: 4:3
Description: Subsequent dosing cohorts were enrolled using a standard 3 + 3 design.
If any patient in any cohort of three patients developed a DLT during cycle 1, an additional three patients were recruited to expand the cohort to up to six evaluable patients. If two or more patients in any expanded cohort developed a DLT, this dose was considered non-tolerated, and dose escalation was discontinued. The MTD was defined as the highest dose level for which no more than one of six patients experienced a DLT.
Patients were continuously evaluated for adverse events throughout the study using the Common Terminology Criteria of Adverse Events (CTCAE v. 5). The patients underwent a clinical history and physical examination, an ECOG PS, a complete blood count (CBCs), chemistry, coagulation studies, urinalysis, a serum pregnancy test (as applicable), a triplicate ECG, an ophthalmology examination, and baseline tumor assessment at screening. During cycle 1, weekly history and physical examination, CBC, chemistry, coagulation parameters, urinalysis, and triplicate ECGs were performed; in subsequent cycles, weekly labs were limited to a CBC. Repeat ophthalmology examinations were performed at cycle 3, day 1, and at the end of treatment. Repeat tumor assessment was performed every 2 cycles (6 weeks) in accordance with RECIST 1.1.

CC(C)[C@H](N)C(=O)SCC/C=C/[C@@H]1CC(=O)NCc2nc(cs2)C(=O)NC(C)(C)C(=O)N[C@@H](C(C)C)C(=O)O1 [OKI-179, Bocodepsin]
TEAE: Dyspnea (270 mg (n = 3), G2): 0 n (%) | TEAE: ECG QT prolonged (270 mg (n = 3), G2): 0 n (%) | TEAE: Fatigue (270 mg (n = 3), G2): 1 (33) n (%) | TEAE: Headache (270 mg (n = 3), G2): 0 n (%) | TEAE: Hypokalaemia (270 mg (n = 3), G2): 0 n (%) | TEAE: Muscular weakness (270 mg (n = 3), G2): 0 n (%) | TEAE: Nasal congestion (270 mg (n = 3), G2): 0 n (%) | TEAE: Nausea (270 mg (n = 3), G2): 0 n (%) | TEAE: Platelet count decreased (270 mg (n = 3), G2): 0 n (%) | TEAE: Proteinuria (270 mg (n = 3), G2): 0 n (%) | TEAE: Pyrexia (270 mg (n = 3), G2): 0 n (%) | TEAE: Vomiting (270 mg (n = 3), G2): 0 n (%) | TEAE: Weight decreased (270 mg (n = 3), G2): 0 n (%) | TEAE: Anemia (270 mg (n = 3), G3): 1 (33) n (%) | TEAE: Back pain (270 mg (n = 3), G3): 0 n (%) | TEAE: Cough (270 mg (n = 3), G3): 0 n (%) | TEAE: Decreased appetite (270 mg (n = 3), G3): 0 n (%) | TEAE: Diarrhea (270 mg (n = 3), G3): 0 n (%) | TEAE: Dyspnea (270 mg (n = 3), G3): 0 n (%) | TEAE: ECG QT prolonged (270 mg (n = 3), G3): 0 n (%) | TEAE: Fatigue (270 mg (n = 3), G3): 0 n (%) | TEAE: Headache (270 mg (n = 3), G3): 0 n (%) | TEAE: Hypokalaemia (270 mg (n = 3), G3): 0 n (%) | TEAE: Muscular weakness (270 mg (n = 3), G3): 0 n (%) | TEAE: Nasal congestion (270 mg (n = 3), G3): 0 n (%) | TEAE: Nausea (270 mg (n = 3), G3): 0 n (%) | TEAE: Platelet count decreased (270 mg (n = 3), G3): 0 n (%) | TEAE: Proteinuria (270 mg (n = 3), G3): 0 n (%) | TEAE: Pyrexia (270 mg (n = 3), G3): 1 (33) n (%) | TEAE: Vomiting (270 mg (n = 3), G3): 0 n (%) | TEAE: Weight decreased (270 mg (n = 3), G3): 0 n (%) | TEAE: Anemia (350 mg (n = 3), G1): 1 (33) n (%) | TEAE: Back pain (350 mg (n = 3), G1): 0 n (%) | TEAE: Cough (350 mg (n = 3), G1): 0 n (%) | TEAE: Decreased appetite (350 mg (n = 3), G1): 0 n (%) | TEAE: Diarrhea (350 mg (n = 3), G1): 0 n (%) | TEAE: Dyspnea (350 mg (n = 3), G1): 1 (33) n (%) | TEAE: ECG QT prolonged (350 mg (n = 3), G1): 0 n (%) | TEAE: Fatigue (350 mg (n = 3), G1): 0 n (%) | TEAE: Headache (350 mg (n = 3), G1): 0 n (%) | TEAE: Hypokalaemia (350 mg (n = 3), G1): 0 n (%) | TEAE: Muscular weakness (350 mg (n = 3), G1): 0 n (%) | TEAE: Nausea (350 mg (n = 3), G1): 1 (33) n (%) | TEAE: Platelet count decreased (350 mg (n = 3), G1): 2 (67) n (%) | TEAE: Proteinuria (350 mg (n = 3), G1): 0 n (%) | TEAE: Pyrexia (350 mg (n = 3), G1): 0 n (%) | TEAE: Vomiting (350 mg (n = 3), G1): 0 n (%) | TEAE: Weight decreased (350 mg (n = 3), G1): 0 n (%) | TEAE: Anemia (350 mg (n = 3), G2): 0 n (%) | TEAE: Back pain (350 mg (n = 3), G2): 0 n (%) | TEAE: Cough (350 mg (n = 3), G2): 0 n (%) | TEAE: Decreased appetite (350 mg (n = 3), G2): 1 (33) n (%) | TEAE: Diarrhea (350 mg (n = 3), G2): 0 n (%) | TEAE: Dyspnea (350 mg (n = 3), G2): 0 n (%) | TEAE: ECG QT prolonged (350 mg (n = 3), G2): 0 n (%) | TEAE: Fatigue (350 mg (n = 3), G2): 0 n (%) | TEAE: Headache (350 mg (n = 3), G2): 0 n (%) | TEAE: Hypokalaemia (350 mg (n = 3), G2): 1 (33) n (%) | TEAE: Muscular weakness (350 mg (n = 3), G2): 1 (33) n (%) | TEAE: Nasal congestion (350 mg (n = 3), G2): 0 n (%) | TEAE: Nausea (350 mg (n = 3), G2): 1 (33) n (%) | TEAE: Platelet count decreased (350 mg (n = 3), G2): 0 n (%) | TEAE: Proteinuria (350 mg (n = 3), G2): 0 n (%) | TEAE: Pyrexia (350 mg (n = 3), G2): 0 n (%) | TEAE: Vomiting (350 mg (n = 3), G2): 1 (33) n (%) | TEAE: Weight decreased (350 mg (n = 3), G2): 0 n (%) | TEAE: Anemia (350 mg (n = 3), G3): 0 n (%) | TEAE: Back pain (350 mg (n = 3), G3): 1 (33) n (%) | TEAE: Cough (350 mg (n = 3), G3): 0 n (%) | TEAE: Decreased appetite (350 mg (n = 3), G3): 0 n (%) | TEAE: Diarrhea (350 mg (n = 3), G3): 0 n (%) | TEAE: Dyspnea (350 mg (n = 3), G3): 0 n (%) | TEAE: ECG QT prolonged (350 mg (n = 3), G3): 1 (33) n (%) | TEAE: Fatigue (350 mg (n = 3), G3): 1 (33) n (%) | TEAE: Headache (350 mg (n = 3), G3): 0 n (%)
